Assay results: PMC11007962, “First-in-human study of GFH018, a small molecule inhibitor of transforming growth factor-β receptor I inhibitor, in patients with advanced solid tumors” (BMC Cancer, 2024)
Marks after values point to notes of the source that are not given here.

Legend:
advanced solid tumors = assay: Clinical efficacy: tumor response per RECIST 1.1; assay type: in vivo, human
Description: The endpoints for efficacy, including the objective response rate (ORR), disease control rate (DCR), progression-free survival (PFS), and time to progression (TTP), were assessed per RECIST 1.1. Tumor response was evaluated every two treatment cycles until disease progression, start of a new antitumor treatment, consent withdrawal, loss to follow-up, or study termination for other reasons.

pSMAD3 = system: pSMAD3; design: method as in preclinical studies (reference not given); conditions: mouse H22 models, ref preclinical studies (reference not given), cited from earlier work
[1] = design: method as in PMID 25488804, PMID 26309397; conditions: consecutive regimens; cited from earlier work
[2] = system: TGF-β-induced SMAD3 phosphorylation; design: method as in doi:10.1158/1538-7445.AM2019-3072; conditions: preclinical; cited from earlier work
[3] = 5 mg BID 14d-on/14d-off (N = 4)
[4] = 10 mg BID 14d-on/14d-off (N = 3)
[5] = 20 mg BID 14d-on/14d-off (N = 4)
[6] = 30 mg BID 14d-on/14d-off (N = 7)
[7] = 40 mg BID 14d-on/14d-off (N = 4)
[8] = 50 mg BID 14d-on/14d-off (N = 4)
[9] = 65 mg BID 14d-on/14d-off (N = 6)
[10] = 85 mg BID 14d-on/14d-off (N = 12)

Cc1cccc(-c2nn3c(c2-c2ccc4ncnn4c2/C=C/C(N)=O)CCC3)n1 [GFH018]
BOR: CR (advanced solid tumors; [3]): 0 n (%)
BOR: NA (no postbaseline assessments after the start date) (advanced solid tumors; [3]): 2 (50.0%) n (%)
BOR: NE (not estimable) (advanced solid tumors; [3]): 0 n (%)
BOR: Non-CR/Non-PD (advanced solid tumors; [3]): 0 n (%)
BOR: PD (advanced solid tumors; [3]): 2 (50.0%) n (%)
BOR: PR (advanced solid tumors; [3]): 0 n (%)
BOR: SD (advanced solid tumors; [3]): 0 n (%)
DCR (90%CI) (advanced solid tumors; [3]): 0 n (%)
ORR (90%CI) (advanced solid tumors; [3]): 0 n (%)
BOR: CR (advanced solid tumors; [4]): 0 n (%)
BOR: NA (no postbaseline assessments after the start date) (advanced solid tumors; [4]): 0 n (%)
BOR: NE (not estimable) (advanced solid tumors; [4]): 0 n (%)
BOR: Non-CR/Non-PD (advanced solid tumors; [4]): 0 n (%)
BOR: PD (advanced solid tumors; [4]): 2 (66.7%) n (%)
BOR: PR (advanced solid tumors; [4]): 0 n (%)
BOR: SD (advanced solid tumors; [4]): 1 (33.3%) n (%)
DCR (90%CI) (advanced solid tumors; [4]): 1 (33.3%) (0.84%, 90.57%) n (%)
ORR (90%CI) (advanced solid tumors; [4]): 0 n (%)
BOR: CR (advanced solid tumors; [5]): 0 n (%)
BOR: NA (no postbaseline assessments after the start date) (advanced solid tumors; [5]): 1 (25.0%) n (%)
BOR: Non-CR/Non-PD (advanced solid tumors; [5]): 0 n (%)
BOR: PD (advanced solid tumors; [5]): 1 (25.0%) n (%)
BOR: PR (advanced solid tumors; [5]): 0 n (%)
BOR: SD (advanced solid tumors; [5]): 1 (25.0%) n (%)
DCR (90%CI) (advanced solid tumors; [5]): 1 (25.0%) (0.63%, 80.59%) n (%)
ORR (90%CI) (advanced solid tumors; [5]): 0 n (%)
BOR: NE (not estimable) (advanced solid tumors; 20 mg BID 14d-on/14d-off (N = 4), SD of insufficient duration): 1 (25.0%)^e n (%)
BOR: CR (advanced solid tumors; [6]): 0 n (%)
BOR: NA (no postbaseline assessments after the start date) (advanced solid tumors; [6]): 3 (42.9%) n (%)
BOR: NE (not estimable) (advanced solid tumors; [6]): 0 n (%)
BOR: Non-CR/Non-PD (advanced solid tumors; [6]): 0 n (%)
BOR: PD (advanced solid tumors; [6]): 3 (42.9%) n (%)
BOR: PR (advanced solid tumors; [6]): 0 n (%)
BOR: SD (advanced solid tumors; [6]): 1 (14.3%) n (%)
DCR (90%CI) (advanced solid tumors; [6]): 1 (14.3%) (0.36%, 57.87%) n (%)
ORR (90%CI) (advanced solid tumors; [6]): 0 n (%)
BOR: CR (advanced solid tumors; [7]): 0 n (%)
BOR: NA (no postbaseline assessments after the start date) (advanced solid tumors; [7]): 1 (25.0%) n (%)
BOR: NE (not estimable) (advanced solid tumors; [7]): 0 n (%)
BOR: Non-CR/Non-PD (advanced solid tumors; [7]): 0 n (%)
BOR: PD (advanced solid tumors; [7]): 3 (75.0%) n (%)
BOR: PR (advanced solid tumors; [7]): 0 n (%)
BOR: SD (advanced solid tumors; [7]): 0 n (%)
DCR (90%CI) (advanced solid tumors; [7]): 0 n (%)
ORR (90%CI) (advanced solid tumors; [7]): 0 n (%)
BOR: CR (advanced solid tumors; [8]): 0 n (%)
BOR: NA (no postbaseline assessments after the start date) (advanced solid tumors; [8]): 2 (50.0%) n (%)
BOR: NE (not estimable) (advanced solid tumors; [8]): 0 n (%)
BOR: Non-CR/Non-PD (advanced solid tumors; [8]): 0 n (%)
BOR: PD (advanced solid tumors; [8]): 1 (25.0%) n (%)
BOR: PR (advanced solid tumors; [8]): 0 n (%)
BOR: SD (advanced solid tumors; [8]): 1 (25.0%) n (%)
DCR (90%CI) (advanced solid tumors; [8]): 1 (25.0%) (0.63%, 80.59%) n (%)
ORR (90%CI) (advanced solid tumors; [8]): 0 n (%)
BOR: CR (advanced solid tumors; [9]): 0 n (%)
BOR: NA (no postbaseline assessments after the start date) (advanced solid tumors; [9]): 0 n (%)
BOR: NE (not estimable) (advanced solid tumors; [9]): 0 n (%)
BOR: Non-CR/Non-PD (advanced solid tumors; [9]): 0 n (%)
BOR: PD (advanced solid tumors; [9]): 5 (83.3%) n (%)
BOR: PR (advanced solid tumors; [9]): 0 n (%)
BOR: SD (advanced solid tumors; [9]): 1 (16.7%) n (%)
DCR (90%CI) (advanced solid tumors; [9]): 1 (16.7%) (0.42%, 64.12%) n (%)
ORR (90%CI) (advanced solid tumors; [9]): 0 n (%)
BOR: CR (advanced solid tumors; 85 mg BID 7d-on/7d-off (N = 6)): 0 n (%)
BOR: NA (no postbaseline assessments after the start date) (advanced solid tumors; 85 mg BID 7d-on/7d-off (N = 6)): 3 (50.0%) n (%)
BOR: NE (not estimable) (advanced solid tumors; 85 mg BID 7d-on/7d-off (N = 6)): 0 n (%)
BOR: Non-CR/Non-PD (advanced solid tumors; 85 mg BID 7d-on/7d-off (N = 6)): 0 n (%)
BOR: PD (advanced solid tumors; 85 mg BID 7d-on/7d-off (N = 6)): 2 (33.3%) n (%)
BOR: PR (advanced solid tumors; 85 mg BID 7d-on/7d-off (N = 6)): 0 n (%)
BOR: SD (advanced solid tumors; 85 mg BID 7d-on/7d-off (N = 6)): 1 (16.7%) n (%)
DCR (90%CI) (advanced solid tumors; 85 mg BID 7d-on/7d-off (N = 6)): 1 (16.7%) (0.42%, 64.12%) n (%)
ORR (90%CI) (advanced solid tumors; 85 mg BID 7d-on/7d-off (N = 6)): 0 n (%)
BOR: CR (advanced solid tumors; [10]): 0 n (%)
BOR: NA (no postbaseline assessments after the start date) (advanced solid tumors; [10]): 5 (41.7%) n (%)
BOR: NE (not estimable) (advanced solid tumors; [10]): 0 n (%)
BOR: Non-CR/Non-PD (advanced solid tumors; [10]): 0 n (%)
BOR: PD (advanced solid tumors; [10]): 4 (33.3%) n (%)
BOR: PR (advanced solid tumors; [10]): 0 n (%)
BOR: SD (advanced solid tumors; [10]): 3 (25.0%) n (%)
DCR (90%CI) (advanced solid tumors; [10]): 3 (25.0%) (5.49%, 57.19%) n (%)
ORR (90%CI) (advanced solid tumors; [10]): 0 n (%)
DCR (advanced solid tumors; 85 mg BID, 14 d-on/14 d-off, twelve patients): 25.0%
median PFS (advanced solid tumors; 85 mg BID, 14 d-on/14 d-off, twelve patients, 90% CI, 0.82–3.75): 1.8 months
complete response (CR) or partial response (PR) (advanced solid tumors; 50 enrolled patients, 33 with at least one tumor assessment): No complete response (CR) or partial response (PR) was observed
BOR: CR (advanced solid tumors; Total (N = 50)): 0 n (%)
BOR: NA (no postbaseline assessments after the start date) (advanced solid tumors; Total (N = 50)): 17 (34.0%) n (%)
BOR: Non-CR/Non-PD (advanced solid tumors; Total (N = 50)): 0 n (%)
BOR: PD (advanced solid tumors; Total (N = 50)): 23 (46.0%) n (%)
BOR: PR (advanced solid tumors; Total (N = 50)): 0 n (%)
BOR: SD (advanced solid tumors; Total (N = 50)): 9 (18.0%) n (%)
DCR (90%CI) (advanced solid tumors; Total (N = 50)): 9 (18.0%) (8.58%, 31.44%) n (%)
ORR (90%CI) (advanced solid tumors; Total (N = 50)): 0 n (%)
BOR: NE (not estimable) (advanced solid tumors; Total (N = 50), SD of insufficient duration): 1 (2.0%)^e n (%)
maximum target lesion decrease (advanced solid tumors; one patient with thymic carcinoma, 65 mg BID): 18.4%
effective concentration (efficacy with approximately 50% inhibition of pSMAD3) (pSMAD3; after the 1-h dose): 125 ng/ml
inhibition of pSMAD3 at which efficacy was observed (pSMAD3; at 125 ng/ml after the 1-h dose): approximately 50%
cardiac findings in toxicology studies [1]: cardiac lesions occur
effect on TGF-β-induced SMAD3 phosphorylation [2]: ability to inhibit TGF-β-induced SMAD3 phosphorylation
